{"source": "paper PMC8754130", "about": "“A Peptide from Budding Yeast GAPDH Serves as a Promising Antifungal against Cryptococcus neoformans” (Microbiology Spectrum, 2022)", "key": {"[1]": {"system": "Cryptococcus neoformans", "experiment": "organism not typed", "settings": "72 h, 37°C, three independent experiments", "description": "(§1) The MIC of the peptide was determined using a standardized micro-broth dilution method with a panel of pathogenic yeast strains (C. albicans, […], C. neoformans, and C. gattii) and bacterial strains (Escherichia coli, Micrococcus luteus, Staphylococcus aureus, and Pseudomonas aeruginosa).\n(§2) The value of the MIC was defined as the lowest concentration of drugs showing no yeast growth. The MIC was determined by three independent repeats, each repeat in quintuplicate."}, "[2]": {"system": "Aspergillus fumigatus", "experiment": "MIC, micro-broth dilution (CLSI M27-A4)", "assay_type": "cell-based", "settings": "Aspergillus fumigatus (YJ407), laboratory stock; three independent experiments", "description": "as §1, §2"}, "[3]": {"system": "ergosterol in the cell membrane of C. neoformans (H99) cells", "experiment": "Filipin III staining of membrane ergosterol", "assay_type": "cell-based, Cryptococcus neoformans", "settings": "1 h", "from_the_text": "All fluorescent images were collected with the confocal microscope (Olympus IX81) at a magnification of ×100 (oil immersion). […] Images were taken using the same confocal microscope described above. […] The fluorescent images of mitochondria were acquired on the confocal microscope (Leica SP8). At least 200 cells per sample were categorized based on their tubular or fragmented mitochondria morphologies. To quantify the fluorescent staining of ergosterol by filipin III, H99 cells with different treatment were stained by filipin III as described ([37]). The fluorescent images were acquired by the IX81 confocal microscope described above. The ImageJ was used to measure the mean fluorescent intensity. The statistical analysis of fluorescent intensity was based on three independent experiments. In each experiment, at least 100 cells were counted in three different visual fields."}, "[4]": {"experiment": "Calcein leakage assay, fungal membrane mimic", "settings": "4 μM; Tris buffer pH 7.4; fluorescence 10 min after addition; 100% = Triton X-100; three independent experiments", "description": "These experiments were performed as previously described ([34]). Briefly, phospholipid vesicles were prepared from POPC: POPE (at a ratio of 1:4), POPC/POPE/Erg (at a ratio of 5:4:3), and POPC with 40% cholesterol, which mimics the cell membranes of bacterial, fungal, and mammalian cells, respectively. The resulting lipid film was suspended in Tris buffer (20 mM Tris, 100 mM NaCl, and 40 mM calcein, pH 7.4). Extravehicular buffer containing lipid vesicles with entrapped calcein was read in a fluorimeter using excitation at 490 nm and emission at 520 nm. […] The 10% Triton X-100 was used to disrupt lipid vesicles for obtaining the maximum fluorescence intensity."}, "[5]": {"system": "C. neoformans H99 cells", "experiment": "Time-killing experiment (killing kinetics)", "assay_type": "cell-based, Cryptococcus neoformans", "settings": "2.5 μM (MIC of melittin), over 4 h, 37°C, RPMI 1640, CFU counting; three independent experiments", "quoted_text": "The time-killing experiment was performed as described ([17]). C. neoformans H99 cells were cultured in RPMI 1640 medium overnight, and the concentration was adjusted to 3 × 10^7 colony-forming units (CFU)/mL. […] Aliquots were taken out to wash and serially diluted 1:10 in RPMI 1640 medium to final concentration of nearly 300 CFU/mL, and plate on the YPD medium at the corresponding time points. After incubating at 37°C for 48 h, colonies were counted to calculate the survival rate. The percentage of CFU of growth control was set as 100%. The percentage of recovering CFU on plates was plotted against time. The data were obtained from three independent experiments."}, "[6]": {"system": "C. neoformans protoplasts", "experiment": "Protoplast rupture experiment (microscopy)", "assay_type": "cell-based, Cryptococcus neoformans", "settings": "2.5 μM, 2 h; three experiments", "from_the_text": "Many antimicrobial peptides form pores in cell membranes to kill cells ([38]). […] To test this hypothesis, C. neoformans protoplasts were adopted for cell rupture experiments. Because the cell walls were digested with enzymes, the unprotected protoplasts could be easily ruptured following peptide-induced pore formation within the cell membrane. Moreover, without the structural support of a cell wall, cell rupture could be clearly observed under the microscope."}, "[7]": {"system": "C. neoformans H99 protoplasts", "experiment": "PI staining of protoplasts, flow cytometry", "assay_type": "cell-based, Cryptococcus neoformans", "settings": "2.5 μM, 1 h; around 30,000 protoplasts per treatment; three independent experiments", "description": "(§3) H99 cells were cultured in RPMI 1640 medium (Sigma, Shanghai) with 0.165 M MOPS (Sigma, Shanghai) overnight and diluted in fresh medium to an OD600 of 1. For the Annexin V-PI assay, the yeast protoplast preparation kit (BestBio, Shanghai) was used to prepare the protoplasts. […] The TUNEL assay was performed by using the Apoptosis Detection Kit (Yeasen, Shanghai) according to the manufacturer’s instructions. For JC-10 staining, H99 cells were stained by 30 μM JC-10 (Yeasen, Shanghai) and 0.02% Pluronic F-127(Beyotime, Shanghai) at 37°C for 30 min. The intracellular ROS was stained by the incubation with 5 μM H2DCFDA(MCE, Shanghai) at 37°C for 30 min. The stained samples were measured by BD FACSCalibur as described ([58]). The data were analyzed by FlowjoX. All experiments were repeated three times independently."}, "[8]": {"system": "C. neoformans H99 protoplasts", "experiment": "Annexin V staining (phosphatidylserine exposure), flow cytometry", "assay_type": "cell-based, Cryptococcus neoformans", "settings": "2.5 μM, 1 h; three independent experiments", "description": "as §3"}, "[9]": {"system": "C. neoformans H99 cells", "experiment": "JC-10 mitochondrial membrane potential assay", "assay_type": "cell-based, Cryptococcus neoformans", "settings": "8 μM, 37°C, 2 h; JC-10, flow cytometry; three experiments", "description": "as §3"}, "[10]": {"settings": "strain JEC21, RPMI 1640 + 0.165 M MOPS, lowest concentration showing no yeast growth"}, "[11]": {"settings": "Cryptococcus neoformans, fzc9Δ, FLC-resistant strain derived from H99, RPMI 1640 + 0.165 M MOPS"}, "[12]": {"settings": "Cryptococcus neoformans, gat5Δ, FLC-resistant strain derived from H99, RPMI 1640 + 0.165 M MOPS"}, "[13]": {"settings": "Cryptococcus neoformans, liv4Δ, FLC-resistant strain derived from H99, RPMI 1640 + 0.165 M MOPS"}}, "note": "Several values for one entry are separate records, joined by “and”; a condition that tells them apart may be missing. Equal entries are not always repeated.", "data": [{"compound": "C[C@@H]1[C@H](O)[C@@H](C)/C=C/C=C/C=C/C=C/C=C/C=C/C=C/[C@H](O[C@@H]2O[C@H](C)[C@@H](O)[C@H](N)[C@@H]2O)C[C@@H]2O[C@](O)(C[C@@H](O)C[C@@H](O)[C@H](O)CC[C@@H](O)C[C@@H](O)CC(=O)O[C@H]1C)C[C@H](O)[C@H]2C(=O)O", "note": "[AmB, amphotericin B]", "values": [{"measurement": "MIC", "setting": "[1]; [10]", "result": 0.4, "unit": "µM"}, {"measurement": "MIC", "setting": "[1]; Cryptococcus neoformans, atf1Δ, AmB-resistant strain derived from H99, RPMI 1640 + 0.165 M MOPS", "result": "> 2.2", "unit": "µM"}, {"measurement": "MIC", "setting": "[1]; [11]", "result": "1.1 µM and 1 µg/mL"}, {"measurement": "MIC", "setting": "[1]; Cryptococcus neoformans, fzc51Δ, AmB-resistant strain derived from H99, RPMI 1640 + 0.165 M MOPS", "result": "> 2.2 µM and > 2 µg/mL"}, {"measurement": "MIC", "setting": "[1]; [12]", "result": "1.1 µM and 1 µg/mL"}, {"measurement": "MIC", "setting": "[1]; [13]", "result": "1.1 µM and 1 µg/mL"}, {"measurement": "MIC", "setting": "[1]; Cryptococcus neoformans, strain H99, RPMI 1640 + 0.165 M MOPS", "result": "1.1 µM and 1 µg/mL"}, {"measurement": "MIC", "setting": "[1]; atf1Δ, AmB-resistant strain derived from H99, RPMI 1640 + 0.165 M MOPS", "result": "> 2", "unit": "µg/mL"}, {"measurement": "MIC", "setting": "[2]", "result": "0.4 µM and 0.37 µg/mL"}, {"measurement": "filipin III signal", "setting": "[3]; 1.1 μM", "result": "a decreased level of filipin III signal"}]}, {"compound": "OC(Cn1cncn1)(Cn1cncn1)c1ccc(F)cc1F", "note": "[FLC, fluconazole]", "values": [{"measurement": "MIC", "setting": "[1]; [10]", "result": 6.5, "unit": "µM"}, {"measurement": "MIC", "setting": "[1]; [11]", "result": "> 26", "unit": "µM"}, {"measurement": "MIC", "setting": "[1]; [12]", "result": "> 26", "unit": "µM"}, {"measurement": "MIC", "setting": "[1]; [13]", "result": "> 26", "unit": "µM"}, {"measurement": "MIC", "setting": "[1]; fzc9Δ, FLC-resistant strain derived from H99, RPMI 1640 + 0.165 M MOPS", "result": "> 8", "unit": "µg/mL"}, {"measurement": "MIC", "setting": "[1]; gat5Δ, FLC-resistant strain derived from H99, RPMI 1640 + 0.165 M MOPS", "result": "> 8", "unit": "µg/mL"}, {"measurement": "MIC", "setting": "[1]; liv4Δ, FLC-resistant strain derived from H99, RPMI 1640 + 0.165 M MOPS", "result": "> 8", "unit": "µg/mL"}, {"measurement": "calcein leakage", "setting": "[4]", "result": "did not induce calcein leakage"}]}, {"compound": "CC[C@H](C)[C@H](NC(=O)CN)C(=O)NCC(=O)N[C@@H](C)C(=O)N[C@H](C(=O)N[C@@H](CC(C)C)C(=O)N[C@@H](CCCCN)C(=O)N[C@H](C(=O)N[C@@H](CC(C)C)C(=O)N[C@H](C(=O)N[C@H](C(=O)NCC(=O)N[C@@H](CC(C)C)C(=O)N1CCC[C@H]1C(=O)N[C@@H](C)C(=O)N[C@@H](CC(C)C)C(=O)N[C@H](C(=O)N[C@@H](CO)C(=O)N[C@@H](Cc1c[nH]c2ccccc12)C(=O)N[C@H](C(=O)N[C@@H](CCCCN)C(=O)N[C@@H](CCCNC(=N)N)C(=O)N[C@@H](CCCCN)C(=O)N[C@@H](CCCNC(=N)N)C(=O)N[C@@H](CCC(N)=O)C(=O)N[C@@H](CCC(N)=O)C(N)=O)[C@@H](C)CC)[C@@H](C)CC)[C@@H](C)O)[C@@H](C)O)C(C)C)C(C)C", "note": "[melittin]", "values": [{"measurement": "MIC", "setting": "[1]; strain H99, RPMI 1640 + 0.165 M MOPS", "result": "2.5 μM and 7.12 μg/mL"}, {"measurement": "cells killed", "setting": "[5]", "result": "~70", "unit": "%"}, {"measurement": "protoplasts ruptured", "setting": "[6]", "result": "~80", "unit": "%"}, {"measurement": "PI-positive protoplasts", "setting": "[7]", "result": "~70", "unit": "%"}, {"measurement": "phosphatidylserine exposure (annexin V)", "setting": "[8]", "result": "almost no phosphatidylserine exposure"}]}, {"compound": "C[C@@H]1C/C=C/C=C/C=C/C=C/[C@H](O[C@@H]2O[C@H](C)[C@@H](O)[C@H](N)[C@@H]2O)C[C@@H]2O[C@](O)(C[C@@H](O)C[C@H]3O[C@@H]3/C=C/C(=O)O1)C[C@H](O)[C@H]2C(=O)O", "note": "[natamycin]", "values": [{"measurement": "filipin III signal", "setting": "[3]; 15 μM", "result": "a decreased level of filipin III signal"}]}, {"compound": "IRIAINGFGRIGRPPPRPPPQRKDIEVVA [control peptide]", "values": [{"measurement": "calcein leakage", "setting": "[4]", "result": "did not induce calcein leakage"}, {"measurement": "cells that lost their mitochondrial membrane potential", "setting": "[9]", "result": "~5", "unit": "%"}]}]}
